# In PubChem BioAssay (NCI):
#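 Step 1: Grow cells in 96-well plates. Step 2: Expose to compound for 48 hours at 5 concentrations. Step 3: Interpolate endpoints linearly; if unreached, use highest concentration. GI50: concentration for 50% inhibition of growth. Definition used: TGI = concentration required for complete inhibition of growth.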
# Legend:
# Assay in all cases: NCI tumour cell line growth inhibition, 48 h
# 786-0 renal = tested on: 786-0 renal
# A498 renal = tested on: A498 renal
# A549 NSCLC = tested on: A549 NSCLC
# ACHN renal = tested on: ACHN renal
# BT-549 breast = tested on: BT-549 breast
# CAKI-1 renal = tested on: CAKI-1 renal
# CCRF-CEM leukemia = tested on: CCRF-CEM leukemia
# COLO 205 colon = tested on: COLO 205 colon
# DU-145 prostate = tested on: DU-145 prostate
# EKVX NSCLC = tested on: EKVX NSCLC
# HCT-116 colon = tested on: HCT-116 colon
# HCT-15 colon = tested on: HCT-15 colon
# HL-60(TB) leukemia = tested on: HL-60(TB) leukemia
# HOP-62 NSCLC = tested on: HOP-62 NSCLC
# HOP-92 NSCLC = tested on: HOP-92 NSCLC
# HS 578T breast = tested on: HS 578T breast
# HT29 colon = tested on: HT29 colon
# IGROV1 ovarian = tested on: IGROV1 ovarian
# K-562 leukemia = tested on: K-562 leukemia
# KM12 colon = tested on: KM12 colon
# LOX IMVI melanoma = tested on: LOX IMVI melanoma
# M14 melanoma = tested on: M14 melanoma
# MALME-3M melanoma = tested on: MALME-3M melanoma
# MCF7 breast = tested on: MCF7 breast
# MDA-MB-231 breast = tested on: MDA-MB-231 breast
# MDA-MB-435 = tested on: MDA-MB-435
# MOLT-4 leukemia = tested on: MOLT-4 leukemia
# NCI-H226 lung = tested on: NCI-H226 lung
compound,measurement,setting,value
COc1ccc2c(c1)OCC1c3cc(O)ccc3OC21 (stereo unspecified),GI50,786-0 renal,78.9 µM
same,TGI,786-0 renal,> 100 µM
same,GI50,A498 renal,40.2 µM
same,TGI,A498 renal,> 100 µM
same,GI50,A549 NSCLC,60.9 µM
same,TGI,A549 NSCLC,> 100 µM
same,GI50,ACHN renal,35.8 µM
same,TGI,ACHN renal,> 100 µM
same,GI50,BT-549 breast,39 µM
same,TGI,BT-549 breast,> 100 µM
same,GI50,CAKI-1 renal,32.5 µM
same,TGI,CAKI-1 renal,> 100 µM
same,GI50,CCRF-CEM leukemia,25.1 µM
same,TGI,CCRF-CEM leukemia,> 100 µM
same,GI50,COLO 205 colon,32.7 µM
same,TGI,COLO 205 colon,> 100 µM
same,GI50,DU-145 prostate,75.8 µM
same,TGI,DU-145 prostate,> 100 µM
same,GI50,EKVX NSCLC,27.8 µM
same,TGI,EKVX NSCLC,> 100 µM
same,GI50,HCT-116 colon,51.4 µM
same,TGI,HCT-116 colon,> 100 µM
same,GI50,HCT-15 colon,40.6 µM
same,TGI,HCT-15 colon,> 100 µM
same,GI50,HL-60(TB) leukemia,3.16 µM
same,TGI,HL-60(TB) leukemia,27.3 µM
same,GI50,HOP-62 NSCLC,> 100 µM
same,TGI,HOP-62 NSCLC,> 100 µM
same,GI50,HOP-92 NSCLC,39.6 µM
same,TGI,HOP-92 NSCLC,> 100 µM
same,GI50,HS 578T breast,41.2 µM
same,TGI,HS 578T breast,> 100 µM
same,GI50,HT29 colon,47.5 µM
same,TGI,HT29 colon,> 100 µM
same,GI50,IGROV1 ovarian,36 µM
same,TGI,IGROV1 ovarian,99.4 µM
same,GI50,K-562 leukemia,63.5 µM
same,TGI,K-562 leukemia,> 100 µM
same,GI50,KM12 colon,38.7 µM
same,TGI,KM12 colon,> 100 µM
same,GI50,LOX IMVI melanoma,42.1 µM
same,TGI,LOX IMVI melanoma,> 100 µM
same,GI50,M14 melanoma,72.5 µM
same,TGI,M14 melanoma,> 100 µM
same,GI50,MALME-3M melanoma,60.2 µM
same,TGI,MALME-3M melanoma,> 100 µM
same,GI50,MCF7 breast,12.8 µM
same,TGI,MCF7 breast,86.4 µM
same,GI50,MDA-MB-231 breast,13.7 µM
same,TGI,MDA-MB-231 breast,92.2 µM
same,GI50,MDA-MB-435,44.8 µM
same,TGI,MDA-MB-435,> 100 µM
same,GI50,MOLT-4 leukemia,35.4 µM
same,TGI,MOLT-4 leukemia,> 100 µM
same,GI50,NCI-H226 lung,18.6 µM
same,TGI,NCI-H226 lung,> 100 µM
